Data as given in ChEMBL document CHEMBL1153790, “Scoring function for DNA-drug docking of anticancer and antiparasitic compounds based on spectral moments of 2D lattice graphs for molecular dynamics trajectories” (2009).

Test: Antiproliferative activity against mouse EAC cells assessed as ratio of ID50 of compound to ID50 of 8-methoxypsoralen
Assay type: functional, Ehrlich

## COc1c2oc(=O)c(C)cc2cc2c(C)coc12
  Ratio: 0.89

## Cc1oc2cc3oc(=O)ccc3cc2c1C
  Ratio: 1.26

## Cc1cc2cc3c(C)coc3c(C)c2oc1=O
  Ratio: 1.34

## Cc1oc2cc3oc(=O)c(C)cc3cc2c1C
  Ratio: 1.79

## Cc1oc2ccc3ccc(=O)oc3c2c1C
  Ratio: 1.47

## Cc1cc2cc3c(C)coc3cc2oc1=O
  Ratio: 1.01

## Cc1cc(=O)oc2nc3occc3cc12
  Ratio: 0.14

## Cc1oc2nc3oc(=O)ccc3cc2c1C
  Ratio: 0.18

## Cc1coc2nc3oc(=O)ccc3cc12
  Ratio: 0.13

## Cc1c(C)c2cc3c(C)coc3cc2oc1=O
  Ratio: 0.34

## COCc1cc(=O)n(C)c2c1cc(C)c1oc(C)cc12
  Ratio: 2.09

## Cc1cc(=O)[nH]c2c1cc(C)c1occ(C)c12
  Ratio: 4.62

## O=C(c1cc2ccc3occc3c2oc1=O)N(CCO)CCO
  Ratio: <0.01

## CN1CCN(C(=O)c2cc3ccc4occc4c3oc2=O)CC1
  Ratio: <0.01

## O=C(c1ccccc1)c1cc2ccc3occc3c2oc1=O
  Ratio: <0.01

## CCN(CC)C(=O)c1cc2ccc3occc3c2oc1=O
  Ratio: <0.01

## O=C(NCCO)c1cc2ccc3occc3c2oc1=O
  Ratio: <0.01

## CCOCCNC(=O)c1cc2ccc3occc3c2oc1=O
  Ratio: <0.01

## CN(C)CCNC(=O)c1cc2ccc3occc3c2oc1=O
  Ratio: <0.01

## NC(=O)c1cc2ccc3occc3c2oc1=O
  Ratio: 0.05

## O=C(c1cc2ccc3occc3c2oc1=O)N1CCOCC1
  Ratio: 0.06

## O=C(O)c1cc2ccc3occc3c2oc1=O
  Ratio: 0.07

## CN(C)C(=O)c1cc2ccc3occc3c2oc1=O
  Ratio: 0.07

## COC(=O)c1cc2ccc3occc3c2oc1=O
  Ratio: 0.2

## Cc1cc(=O)oc2c1c(C)cc1occ(C)c12
  Ratio: 5.78

## Cc1cc(=O)[nH]c2c1ccc1occ(C)c12
  Ratio: 0.48

## Cc1oc2nc3oc(=O)ccc3c(C)c2c1C
  Ratio: 0.25

## Cc1c(C)c2cc3c(C)coc3nc2oc1=O
  Ratio: 0.67

## Cc1coc2nc3oc(=O)cc(C)c3cc12
  Ratio: 0.68

## Cc1coc2nc3oc(=O)ccc3c(C)c12
  Ratio: 0.97

## Cc1oc2nc3oc(=O)c(C)c(C)c3cc2c1C
  Ratio: 1.83

## Cc1cc2ccc3occc3c2oc1=O
  Ratio: 0.2

## Cc1c(C)c2ccc3occ(C)c3c2oc1=O
  Ratio: 0.03

## Cc1c(C)c2ccc3occc3c2oc1=O
  Ratio: 0.35

## CCOC(=O)c1cc2ccc3occc3c2oc1=O
  Ratio: 0.4

## Cc1cc2c(o1)c(C)cc1c(CO)cc(=O)[nH]c12
  Ratio: 0.66

## Cc1cc(=O)[nH]c2c1cc(C)c1oc(CO)c(C)c12
  Ratio: 1.07

## Cc1cc2c(o1)c(C)cc1c(C)cc(=O)[nH]c12
  Ratio: 1.36

## Cc1oc2nc3oc(=O)cc(C)c3cc2c1C
  Ratio: 3.66

## CC(=O)c1cc2ccc3occc3c2oc1=O
  Ratio: <0.01

## COCc1c(C)oc2ccc3c(C)cc(=O)oc3c12
  Ratio: 0.6

## Cc1coc2cc3oc(=O)cc(CO)c3cc12
  Ratio: 2.32

## Cc1cc2c(o1)c(C)cc1c(CO)cc(=O)n(C)c12
  Ratio: 5.6

## Cc1cc(=O)oc2c1ccc1occc12
  Ratio: 0.55

## Cc1cc2occ(C)c2c2oc(=O)ccc12
  Ratio: 5.3

## Cc1cc(=O)oc2c1ccc1occ(C)c12
  Ratio: 5.75

## Cc1oc2c(C)cc3c(C)cc(=O)[nH]c3c2c1C
  Ratio: 9.25

## Cc1cc2c(ccc3ccc(=O)oc32)o1
  Ratio: 0.8

## Cc1coc2ccc3ccc(=O)oc3c12
  Ratio: 0.81

## Cc1oc2ccc3c(C)cc(=O)[nH]c3c2c1C
  Ratio: 2.59

## Cc1cc2c(ccc3c(C)cc(=O)oc32)o1
  Ratio: 1.27

## O=c1ccc2ccc3occc3c2o1 [ANGELICIN]
  Ratio: 0.55

## COc1c2ccoc2cc2oc(=O)ccc12 [BERGAPTEN]
  Ratio: 0.66

## COc1c2occc2cc2ccc(=O)oc12 [METHOXSALEN]
  Ratio: 1

## O=c1ccc2cc3ccoc3cc2o1 [PSORALEN]
  Ratio: 1.52

## Cc1cc2cc3c(C)cc(=O)oc3c(C)c2o1 [TRIOXSALEN]
  Ratio: 27.6
